What all share (type): in vivo
In experiment [1] the test system is Setaria viridis (SETVI). Briefly: greenhouse test, pre-emergence treatment. To be noted: 0.250 kg/ha, pre-emergence method; scale from 0 to 100. The text has this: (§1) The culture containers used were plastic flowerpots containing loamy sand with approximately 3.0% of humus as the substrate. The seeds of the test plants were sown separately for each species.
(§2) For the pre-emergence treatment, the active ingredients, which had been suspended or emulsified in water, were applied directly after sowing by means of finely distributing nozzles. The containers were irrigated gently to promote germination and growth and subsequently covered with transparent plastic hoods until the test plants had rooted.
(§3) This cover caused uniform germination of the test plants, unless this had been impaired by the active ingredients.
(§4) Depending on the species, the test plants were kept at 10-25° C. or 20-35° C., respectively.
(§5) The test period extended over 2 to 4 weeks. During this time, the test plants were tended, and their response to the individual treatments was evaluated.
(§6) Evaluation was carried out using a scale from 0 to 100. 100 means no emergence of the test plants, or complete destruction of at least the aerial moieties, and 0 means no damage, or normal course of growth. A good herbicidal activity is given at values of 70 to <90 and a very good herbicidal activity is given at values of 90 to 100.
(§7) The test plants used in the greenhouse experiments were of the following species: […]

For experiment [2], the system named is Amaranthus retroflexus (AMARE). Kind of experiment: greenhouse test, pre-emergence treatment. To be noted: pre-emergence method, scale from 0 to 100.
Source text: as §1, §2, §3, §4, §5, §6, §7

Experiment [3] relates to Echinocloa crus-galli (ECHCG). Kind of experiment: greenhouse test, post-emergence treatment. To be noted: 0.500 kg/ha, post-emergence method; scale from 0 to 100.
Source text: as §1
(§8) For the post-emergence treatment, the test plants were first grown to a height of 3 to 15 cm, depending on the plant habit, and only then treated with the active ingredients which had been suspended or emulsified in water. For this purpose, the test plants were either sown directly and grown in the same containers, or they were first grown separately as seedlings and transplanted into the test containers a few days prior to treatment.
as §4, §5, §6, §7

Experiment [4] deals with Echinocloa crus-galli (ECHCG). Kind of experiment: greenhouse test, pre-emergence treatment. Particulars: 0.125 kg/ha, pre-emergence method; scale from 0 to 100.
Source text: as §1, §2, §3, §4, §5, §6, §7

In experiment [5] the test system is Abutilon theophrasti (ABUTH). Kind of experiment: greenhouse test, pre-emergence treatment. Particulars: 0.125 kg/ha, pre-emergence method; scale from 0 to 100.
Source text: as §1, §2, §3, §4, §5, §6, §7

A further experiment relates to Setaria faberi (SETFA). Briefly: greenhouse test, pre-emergence treatment. Particulars: 0.125 kg/ha, pre-emergence method; scale from 0 to 100.
Source text: as §1, §2, §3, §4, §5, §6, §7

Experiment [6] relates to Apera spica-venti (APESV). Briefly: greenhouse test, pre-emergence treatment. Particulars: 0.125 kg/ha, pre-emergence method; scale from 0 to 100.
Source text: as §1, §2, §3, §4, §5, §6, §7

The test system of experiment [7] is Setaria viridis (SETVI). Briefly: greenhouse test, post-emergence treatment. Particulars: 1.000 kg/ha, post-emergence method; scale from 0 to 100.
Source text: as §1, §8, §4, §5, §6, §7

Experiment [8] relates to Digitaria sanguinalis (DIGSA). Kind of experiment: greenhouse test, pre-emergence treatment. To be noted: 1.000 kg/ha, pre-emergence method; scale from 0 to 100.
Source text: as §1, §2, §3, §4, §5, §6, §7

In experiment [9] the test system is Lolium multiflorum (LOLMU). Kind of experiment: greenhouse test, pre-emergence treatment. Particulars: 1.000 kg/ha, pre-emergence method; scale from 0 to 100.
Source text: as §1, §2, §3, §4, §5, §6, §7

The subject of experiment [10] is Amaranthus retroflexus (AMARE). Briefly: greenhouse test, post-emergence treatment. To be noted: 1.000 kg/ha, post-emergence method; scale from 0 to 100.
Source text: as §1, §8, §4, §5, §6, §7

Turning to `COC(=O)C1C=CC(NC(=O)C(C)C(=O)Nc2cc(F)cc(F)c2)C1` (mixture of isomers) [I.153], the “herbicidal activity against SETVI” value in the experiment with Setaria viridis (SETVI) [1] is reported as “very good herbicidal activity (a very good herbicidal activity is given at values of 90 to 100)”. Take `COC(=O)CC(C)NC(=O)C(C)C(=O)Nc1cc(Cl)cc(Cl)c1` (stereo not shown) [I.1]: in experiment [2] (0.500 kg/ha), the “herbicidal activity against AMARE” value is on record as “good herbicidal activity (A good herbicidal activity is given at values of 70 to <90)”.

As for `COC(=O)CC(C)NC(=O)C(C(=O)Nc1cc(Cl)cc(Cl)c1)C1CC1` (stereo not shown) [I.3], the “herbicidal activity against ECHCG” value in experiment [3] is given as “good herbicidal activity (A good herbicidal activity is given at values of 70 to <90)”. For the molecule `CCS(=O)(=O)NC(=O)CC(C)NC(=O)C(C)C(=O)Nc1cc(C)cc(F)c1` (stereo not shown) [I.14], the “herbicidal activity against AMARE” value in [2] (0.125 kg/ha) was “very good herbicidal activity (a very good herbicidal activity is given at values of 90 to 100)”. Besides, in [4], the “herbicidal activity against ECHCG” value was “good herbicidal activity (A good herbicidal activity is given at values of 70 to <90)”. For the molecule `CONC(=O)CC(C)NC(=O)C(C)C(=O)Nc1cc(F)cc(F)c1` (stereo not shown) [I.79], in experiment [5], the “herbicidal activity against ABUTH” value was “good herbicidal activity (A good herbicidal activity is given at values of 70 to <90)”. For `CCC(C(=O)Nc1cc(Cl)cc(Cl)c1)C(=O)N[C@H]1C=C[C@@H](C(=O)OC)C1` (stereo partly drawn) [I.90, methyl (1S,4R)-4-[2-[(3,5-dichlorophenyl)carbamoyl]butanoylamino]cyclopent-2-ene-1-carboxylate], the “herbicidal activity against SETFA” value with Setaria faberi (SETFA) is “good herbicidal activity (A good herbicidal activity is given at values of 70 to <90)”. Consider `CCc1cccc(NC(=O)C(CC)C(=O)NC(C)CCC(=O)OC)c1` (stereo not shown) [I.117], for which the “herbicidal activity against APESV” value in experiment [6] is on record as “very good herbicidal activity (a very good herbicidal activity is given at values of 90 to 100)”. Turning to `CCC(C(=O)Nc1cccc(OC(F)(F)F)c1)C(=O)NC(C)CCC(=O)O` (stereo not shown) [I.128], the “herbicidal activity against AMARE” value in experiment [2] (1.000 kg/ha) is listed as “very good herbicidal activity (a very good herbicidal activity is given at values of 90 to 100)”. Regarding `CCC(C(=O)Nc1cc(C)cc(F)c1)C(=O)NC(C)CCC(=O)O` (stereo not shown) [I.136], the “herbicidal activity against SETVI” value with Setaria viridis (SETVI) [7] is “good herbicidal activity (A good herbicidal activity is given at values of 70 to <90)”. Consider `CCC(C(=O)Nc1cccc(F)c1)C(=O)N[C@H]1C=C[C@@H](C(=O)O)C1` (stereo partly shown) [I.138], for which, in [8], the “herbicidal activity against DIGSA” value was “good herbicidal activity (A good herbicidal activity is given at values of 70 to <90)”. Also, the “herbicidal activity against LOLMU” value in experiment [9] was “good herbicidal activity (A good herbicidal activity is given at values of 70 to <90)”.

On to `CCC(C(=O)Nc1cc(F)cc(F)c1)C(=O)NC(C)CC(=O)O` (stereo not shown) [I.144], for which the “herbicidal activity against AMARE” value in experiment [10] is on record as “good herbicidal activity (A good herbicidal activity is given at values of 70 to <90)”.

The values above are taken from patent publication US20240373847A1, “HERBICIDAL MALONAMIDES” (BASF SE, priority 2021, published 2024).
